Laboratory results reported in patent US20250170141A1, “MRGPRX2 MODULATORS AND RELATED METHODS OF TREATMENT” (Escient Pharmaceuticals, Inc., priority 2023, published 2025).

Molecular target: T1, human MRGPRX2 (Homo sapiens, UniProt Q96LB1)
T1 construct: expressed in transfected cells; host or cells: CHO cells, stably transfected (G418 and Hygromycin B selection)
T1 sequence (Q96LB1 1-330): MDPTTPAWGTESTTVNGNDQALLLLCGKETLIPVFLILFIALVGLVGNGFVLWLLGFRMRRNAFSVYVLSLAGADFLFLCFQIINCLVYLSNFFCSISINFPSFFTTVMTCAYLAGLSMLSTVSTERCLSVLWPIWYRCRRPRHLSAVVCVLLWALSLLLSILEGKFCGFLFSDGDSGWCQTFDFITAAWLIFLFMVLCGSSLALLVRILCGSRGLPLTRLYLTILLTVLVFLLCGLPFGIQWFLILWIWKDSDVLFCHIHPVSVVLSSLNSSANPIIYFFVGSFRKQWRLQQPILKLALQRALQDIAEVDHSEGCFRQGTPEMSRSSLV
Assay: MRGPRX2 activity: IP-One Gq HTRF assay in CHO cells, antagonism versus 0.3 uM Cortistatin-14
Assay type: cell-based
Conditions: versus 0.3 uM Cortistatin-14 agonist, CHO cells expressing human MRGPRX2, read-out: MRGPRX2 Antagonist Activity
Summary of the method: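 CHO cells stably expressing human MRGPRX2 were treated with a 10-point compound curve (30 uM top, 1:3) plus 0.3 μM Cortistatin-14 in LiCl-containing Tris buffer, pH 8. Incubation was 1 h at 37 °C then 1 h at room temperature; IP-1 was detected by HTRF and IC50 came from the HTRF ratio.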

SMILES	IC50 [nM]
CC(c1ccccc1Cl)c1c(F)ccc2c1NC(NCc1ncccc1F)=NS2(=O)=O (stereo not drawn) [Compound 8-1, 5-(1-(2-chlorophenyl)ethyl)-6-fluoro-3-(((3-fluoropyridin-2-yl)methyl)amino)-4H-benzo[e][1,2,4]thiadiazine 1,1-dioxide]	< 100
CC(c1ccc(F)cc1)c1c(F)ccc2c1NC(NCc1ncccc1F)=NS2(=O)=O (stereo not drawn) [Compound 8-2, 6-fluoro-5-(1-(4-fluorophenyl)ethyl)-3-(((3-fluoropyridin-2-yl)methyl)amino)-4H-benzo[e][1,2,4]thiadiazine 1,1-dioxide]	< 100
Cc1c(F)cccc1CNC1=NS(=O)(=O)c2ccc(F)c(C(C)c3cccc(Cl)c3Cl)c2N1 (stereo not drawn) [Compound 8-3, 5-(1-(2,3-dichlorophenyl)ethyl)-6-fluoro-3-((3-fluoro-2-methylbenzyl)amino)-4H-benzo[e][1,2,4]thiadiazine 1,1-dioxide]	< 100
CC(c1ccccc1F)c1c(F)ccc2c1NC(NCc1cccc(Cl)c1F)=NS2(=O)=O (stereo not drawn) [Compound 9-2, 3-((3-chloro-2-fluorobenzyl)amino)-6-fluoro-5-(1-(2-fluorophenyl)ethyl)-4H-benzo[e][1,2,4]thiadiazine 1,1-dioxide]	< 100
CC(c1ccccc1F)c1c(F)ccc2c1NC(NCc1cc(F)ccc1F)=NS2(=O)=O (stereo not drawn) [Compound 9-3, 3-((2,5-difluorobenzyl)amino)-6-fluoro-5-(1-(2-fluorophenyl)ethyl)-4H-benzo[e][1,2,4]thiadiazine 1,1-dioxide]	< 100
CC(c1ccccc1F)c1c(F)ccc2c1NC(NCc1cccc(F)c1)=NS2(=O)=O (stereo not drawn) [Compound 9-4, 6-fluoro-3-((3-fluorobenzyl)amino)-5-(1-(2-fluorophenyl)ethyl)-4H-benzo[e][1,2,4]thiadiazine 1,1-dioxide]	< 100
CC(c1ccccc1F)c1c(F)ccc2c1NC(NCc1cccc(F)n1)=NS2(=O)=O (stereo not drawn) [Compound 9-5, 6-fluoro-5-(1-(2-fluorophenyl)ethyl)-3-(((6-fluoropyridin-2-yl)methyl)amino)-4H-benzo[e][1,2,4]thiadiazine 1,1-dioxide]	< 100
Cc1c(F)cccc1CNC1=NS(=O)(=O)c2ccc(F)c(C(C)c3ccccc3F)c2N1 (stereo not drawn) [Compound 9-6, 6-fluoro-3-((3-fluoro-2-methylbenzyl)amino)-5-(1-(2-fluorophenyl)ethyl)-4H-benzo[e][1,2,4]thiadiazine 1,1-dioxide]	< 100
CC(c1ccccc1F)c1c(F)c(F)cc2c1NC(NCc1ncccc1F)=NS2(=O)=O (stereo not drawn) [Compound 9-7, 6,7-difluoro-5-(1-(2-fluorophenyl)ethyl)-3-(((3-fluoropyridin-2-yl)methyl)amino)-4H-benzo[e][1,2,4]thiadiazine 1,1-dioxide]	< 100
O=S1(=O)N=C(NCc2ncccc2F)Nc2c1ccc(F)c2CCc1ccccc1Cl [Compound 11-1, 5-(2-chlorophenethyl)-6-fluoro-3-(((3-fluoropyridin-2-yl)methyl)amino)-4H-benzo[e][1,2,4]thiadiazine 1,1-dioxide]	100 to 500
O=S1(=O)N=C(NCc2ccccc2Cl)Nc2c(Cc3ccccc3Cl)cccc21 [Compound 12-1, 5-(2-chlorobenzyl)-3-((2-chlorobenzyl)amino)-4H-benzo[e][1,2,4]thiadiazine 1,1-dioxide]	< 100
O=S1(=O)N=C(NCc2ncccc2F)Nc2c(Cc3ccccc3Cl)cccc21 [Compound 12-2, 5-(2-chlorobenzyl)-3-(((3-fluoropyridin-2-yl)methyl)amino)-4H-benzo[e][1,2,4]thiadiazine 1,1-dioxide]	< 100
O=S1(=O)N=C(NCc2ncccc2Cl)Nc2c(Cc3ccccc3Cl)cccc21 [Compound 12-3, 5-(2-chlorobenzyl)-3-(((3-chloropyridin-2-yl)methyl)amino)-4H-benzo[e][1,2,4]thiadiazine 1,1-dioxide]	< 100
O=S1(=O)N=C(NCc2ccc(F)cc2Cl)Nc2c(Cc3ccccc3Cl)cccc21 [Compound 12-4, 3-((2-chloro-4-fluorobenzyl)amino)-5-(2-chlorobenzyl)-4H-benzo[e][1,2,4]thiadiazine 1,1-dioxide]	< 100
Cc1ccc(CNC2=NS(=O)(=O)c3cccc(Cc4ccccc4Cl)c3N2)c(Cl)c1 [Compound 12-5, 3-((2-chloro-4-methylbenzyl)amino)-5-(2-chlorobenzyl)-4H-benzo[e][1,2,4]thiadiazine 1,1-dioxide]	< 100
Cc1ccc(CNC2=NS(=O)(=O)c3cccc(Cc4ccccc4Cl)c3N2)c(F)c1 [Compound 12-6, 5-(2-chlorobenzyl)-3-((2-fluoro-4-methylbenzyl)amino)-4H-benzo[e][1,2,4]thiadiazine 1,1-dioxide]	< 100
Cc1cc(F)ccc1CNC1=NS(=O)(=O)c2cccc(Cc3ccccc3Cl)c2N1 [Compound 12-7, 5-(2-chlorobenzyl)-3-((4-fluoro-2-methylbenzyl)amino)-4H-benzo[e][1,2,4]thiadiazine 1,1-dioxide]	< 100

SMILES	IC50 [nM]
Cc1ccc(CNC2=NS(=O)(=O)c3cccc(Cc4ccccc4Cl)c3N2)c(C)c1 [Compound 12-8, 5-(2-chlorobenzyl)-3-((2,4-dimethylbenzyl)amino)-4H-benzo[e][1,2,4]thiadiazine 1,1-dioxide]	< 100
COc1cc(F)ccc1CNC1=NS(=O)(=O)c2cccc(Cc3ccccc3Cl)c2N1 [Compound 12-9, 5-(2-chlorobenzyl)-3-((4-fluoro-2-methoxybenzyl)amino)-4H-benzo[e][1,2,4]thiadiazine 1,1-dioxide]	< 100
O=S1(=O)N=C(NCc2ncc(F)cc2F)Nc2c(Cc3ccccc3Cl)cccc21 [Compound 12-10, 5-(2-chlorobenzyl)-3-(((3,5-difluoropyridin-2-yl)methyl)amino)-4H-benzo[e][1,2,4]thiadiazine 1,1-dioxide]	< 100
O=S1(=O)N=C(NCc2ccc(F)cc2F)Nc2c(Cc3ccccc3Cl)cccc21 [Compound 12-11, 5-(2-chlorobenzyl)-3-((2,4-difluorobenzyl)amino)-4H-benzo[e][1,2,4]thiadiazine 1,1-dioxide]	< 100
O=S1(=O)N=C(NCc2ccc(Cl)c(Cl)c2)Nc2c(Cc3ccccc3Cl)cccc21 [Compound 12-12, 5-(2-chlorobenzyl)-3-((3,4-dichlorobenzyl)amino)-4H-benzo[e][1,2,4]thiadiazine 1,1-dioxide]	< 100
Cc1ccc(CNC2=NS(=O)(=O)c3cccc(Cc4ccccc4Cl)c3N2)cc1C [Compound 12-13, 5-(2-chlorobenzyl)-3-((3,4-dimethylbenzyl)amino)-4H-benzo[e][1,2,4]thiadiazine 1,1-dioxide]	< 100
O=S1(=O)N=C(NCc2ccc(F)c(F)c2)Nc2c(Cc3ccccc3Cl)cccc21 [Compound 12-14, 5-(2-chlorobenzyl)-3-((3,4-difluorobenzyl)amino)-4H-benzo[e][1,2,4]thiadiazine 1,1-dioxide]	< 100
COc1cc(C)ccc1CNC1=NS(=O)(=O)c2cccc(Cc3ccccc3Cl)c2N1 [Compound 12-15, 5-(2-chlorobenzyl)-3-((2-methoxy-4-methylbenzyl)amino)-4H-benzo[e][1,2,4]thiadiazine 1,1-dioxide]	100 to 500
O=S1(=O)N=C(NCc2cccc(Cl)c2)Nc2c(Cc3ccccc3Cl)cccc21 [Compound 12-16, 5-(2-chlorobenzyl)-3-((3-chlorobenzyl)amino)-4H-benzo[e][1,2,4]thiadiazine 1,1-dioxide]	< 100
O=S1(=O)N=C(NCc2ccncc2Cl)Nc2c(Cc3ccccc3Cl)cccc21 [Compound 12-17, 5-(2-chlorobenzyl)-3-(((3-chloropyridin-4-yl)methyl)amino)-4H-benzo[e][1,2,4]thiadiazine 1,1-dioxide]	< 100
O=S1(=O)N=C(NCc2cccnc2Cl)Nc2c(Cc3ccccc3Cl)cccc21 [Compound 12-18, 5-(2-chlorobenzyl)-3-(((2-chloropyridin-3-yl)methyl)amino)-4H-benzo[e][1,2,4]thiadiazine 1,1-dioxide]	< 100
Cc1ccccc1CNC1=NS(=O)(=O)c2cccc(Cc3ccccc3Cl)c2N1 [Compound 12-19, 5-(2-chlorobenzyl)-3-((2-methylbenzyl)amino)-4H-benzo[e][1,2,4]thiadiazine 1,1-dioxide]	< 100
Cc1cccc(CNC2=NS(=O)(=O)c3cccc(Cc4ccccc4Cl)c3N2)c1 [Compound 12-20, 5-(2-chlorobenzyl)-3-((3-methylbenzyl)amino)-4H-benzo[e][1,2,4]thiadiazine 1,1-dioxide]	< 100
Cc1cccnc1CNC1=NS(=O)(=O)c2cccc(Cc3ccccc3Cl)c2N1 [Compound 12-21, 5-(2-chlorobenzyl)-3-(((3-methylpyridin-2-yl)methyl)amino)-4H-benzo[e][1,2,4]thiadiazine 1,1-dioxide]	< 100
O=S1(=O)N=C(NCc2cccc(F)c2)Nc2c(Cc3ccccc3Cl)cccc21 [Compound 12-22, 5-(2-chlorobenzyl)-3-((3-fluorobenzyl)amino)-4H-benzo[e][1,2,4]thiadiazine 1,1-dioxide]	< 100
O=S1(=O)N=C(NCc2ccncc2F)Nc2c(Cc3ccccc3Cl)cccc21 [Compound 12-23, 5-(2-chlorobenzyl)-3-(((3-fluoropyridin-4-yl)methyl)amino)-4H-benzo[e][1,2,4]thiadiazine 1,1-dioxide]	< 100
